{"source": "paper PMC11555261", "about": "“Targeting USP11 regulation by a novel lithium-organic coordination compound improves neuropathologies and cognitive functions in Alzheimer transgenic mice” (EMBO Molecular Medicine, 2024)", "biological_target": "T1, USP11 (recombinant USP11 protein) (Homo sapiens, UniProt P51784)", "T1 construct": "commercial recombinant human protein from Sf9 insect cells; His tag implied by RED-tris-NTA labelling", "T1 sequence (P51784 whole entry)": "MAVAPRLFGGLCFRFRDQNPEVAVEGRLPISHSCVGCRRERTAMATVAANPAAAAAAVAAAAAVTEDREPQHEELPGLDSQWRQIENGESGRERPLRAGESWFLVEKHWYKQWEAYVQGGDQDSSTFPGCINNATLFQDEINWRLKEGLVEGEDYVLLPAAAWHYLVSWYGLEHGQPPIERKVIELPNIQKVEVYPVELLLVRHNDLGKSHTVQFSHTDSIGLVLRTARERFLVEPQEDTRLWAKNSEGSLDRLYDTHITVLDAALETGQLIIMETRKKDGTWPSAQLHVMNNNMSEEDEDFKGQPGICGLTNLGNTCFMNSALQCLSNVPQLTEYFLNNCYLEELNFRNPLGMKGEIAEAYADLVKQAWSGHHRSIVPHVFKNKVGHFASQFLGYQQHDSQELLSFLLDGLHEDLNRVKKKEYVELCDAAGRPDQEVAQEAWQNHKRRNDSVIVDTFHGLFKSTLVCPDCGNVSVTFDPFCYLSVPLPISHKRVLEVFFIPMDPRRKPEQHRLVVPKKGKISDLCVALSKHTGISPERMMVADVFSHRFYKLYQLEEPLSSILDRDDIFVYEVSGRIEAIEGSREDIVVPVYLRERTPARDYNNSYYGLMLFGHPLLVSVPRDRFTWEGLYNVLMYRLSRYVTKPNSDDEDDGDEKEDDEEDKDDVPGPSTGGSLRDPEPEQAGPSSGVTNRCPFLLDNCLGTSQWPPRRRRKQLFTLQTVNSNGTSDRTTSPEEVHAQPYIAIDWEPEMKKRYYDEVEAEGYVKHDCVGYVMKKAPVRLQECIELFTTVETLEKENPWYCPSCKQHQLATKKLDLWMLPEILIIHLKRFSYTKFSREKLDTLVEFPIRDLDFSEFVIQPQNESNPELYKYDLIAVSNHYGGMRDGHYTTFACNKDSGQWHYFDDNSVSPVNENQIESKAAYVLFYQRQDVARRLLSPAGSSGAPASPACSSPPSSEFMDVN", "assay": "microscale thermophoresis", "type": "binding", "data": [{"molecule": "O=C(O)[C@@H]1CCCN1", "note": "[IsoLiPro]", "values": [{"measurement": "Kd", "value": 43.4, "unit": "µM"}]}]}
